Assay results reported in patent publication US20210186982A1, “METHODS AND COMPOSITIONS FOR TREATING MELANOMA” (UNIVERSITE NICE SOPHIA ANTIPOLIS, priority 2017, published 2021).
Entries after “also recorded” stand apart in the source; their conditions may differ.

Columns and labels:
[1] = Annexin-V-FITC/7-AAD flow cytometry, cell viability; assay type: cell-based; conditions: human, A375 cells; solvent 87%
Method: Cell death was evaluated by flow cytometry following staining with Annexin-V-FITC and 7-AAD (eBiosciences) as previously described 24.

[2] = tested on: A375 cells; assay: ROS production (CM-H2DCFDA, flow cytometry); assay type: cell-based, human; conditions: 2 μM b-AP15 for 30 min
Method: ROS levels were measured using the redox-sensitive dye CM-H2DCFDA (Thermo Fischer Scientific). After treatment, cells were stained with 10 μM CM-H2DCFDA in PBS for 30 min at 37° C. Cells were washed with PBS and resuspended in PBS 5 mM EDTA/1% BSA. ROS production was analysed using a MACSQuant® Analyzer 10 cytometer (Miltenyi Biotech).

[3] = tested on: ER stress response genes; assay: qRT-PCR analysis of ER stress response genes; assay type: cell-based, human; conditions: 2 μM b-AP15, 6 h and 24 h; 12051u cells
Method: Total RNA was extracted from cell samples using Nucleospin RNAII kit (Macherey-Nagel) and following the manufacturer's instructions. Recovered RNA samples were quantified using NanoDrop spectrophotometer ND1000 (Thermo Fisher Scientific). Reverse transcription was performed on 1 μg of total RNA in a volume of 20 μL using High capacity cDNA Reverse Transcription kit (Applied Biosystems) according to the manufacturer's instructions. Quantitative PCR was performed on 20 ng cDNA samples, in sealed 96-well microtiter plates using the Platinum® SYBR Green qPCR Supermix-UDG w/ROX (Life Technologies) with the StepOnePlus System (Applied Biosystems). Relative mRNA levels were determined using the 2ΔΔCT method and ACTB and PPIA as housekeeping genes. Values are the mean of duplicates and are representative of two independent experiments.

[4] = biological target: T1, USP14 (Homo sapiens, UniProt P54578); assay: DUB trap assay (HA-Ub-VS probe, anti-USP14 immunoblot); assay type: cell-based
T1 construct: endogenous in cells; host or cells: A375 (also 1205Lu, 501Mel, SKMel28, 451Lu) melanoma cells; cell lysates
Method: Cells were harvested, washed with PBS and pellets were dried then freezed (−80° C.) and subsequently lysed in ice-cold buffer containing 50 mM Tris (pH 7.4), 5 mM MgCl2, 250 mM sucrose, 1 mM DTT, 2 mM ATP, and 1 mM PMSF and mild sonication. Lysates were cleared by centrifugation, and 20 μg of protein extracts were incubated for 25 min at 37° C. with 2 μM HA-Ub-VS (Boston Biochem, Cambridge, Mass.). After boiling in reducing sample buffer, labelled cell lysates were subjected to immunoblot analysis as described above using the indicated antibodies.

[5] = tested on: 451IuR; assay: MTS conversion assay, melanoma cell proliferation; assay type: cell-based, human
Method: (§1) Cell proliferation was measured by a MTS conversion assay using the CellTiter 96® Aqueous Non-Radioactive Cell Proliferation kit (Promega, Madison Wis.) according to the manufacturer instructions. Cells were seeded in 96-well plates (5×10^4 cells/well) and treated with different reagents for the indicated times and incubated at 37° C. with MTS reagent. The optical density of each sample at 490 nm was determined with a Multiskan FC plate reader (Thermo Fisher Scientific, Waltham, Mass. USA).

[6] = tested on: 1205Iu; assay: MTS conversion assay, melanoma cell proliferation; assay type: cell-based, human
Method: as §1

[7] = tested on: m229R; assay: MTS conversion assay, melanoma cell proliferation; assay type: cell-based, human
Method: as §1

[8] = tested on: 501Mel; assay: MTS conversion assay, melanoma cell proliferation; assay type: cell-based, human
Method: as §1

[9] = tested on: A375; assay: MTS conversion assay, melanoma cell proliferation; assay type: cell-based, human
Method: as §1

[10] = tested on: melanoma cells; assay: Cytotoxic effect, rounding of cells; assay type: cell-based, human
[11] = tested on: Pt#1 patient cells; assay: MTS conversion assay, patient melanoma cell proliferation; assay type: cell-based; conditions: Homo sapiens; Patient cells Pt#1; MET; BRAF*; resistance none; 48 h MTS; read-out: b-AP15 IC50
Method: as §1

[12] = tested on: 4511u and 4511uR cells; assay: Colony formation assay; assay type: cell-based, human
Method: Alternatively, cell growth was assessed by crystal violet staining on cells seeded in 24-well plates for the indicated time. After treatment, cells were fixed in PFA 3% during 20 min, washed with PBS 3 times and stained with crystal violet 0.4% in ethanol 20% for 30 min.

[13] = tested on: m238R; assay: MTS conversion assay, melanoma cell proliferation; assay type: cell-based; conditions: Homo sapiens, MET, BRAFV600E/PTEN*/RTK*, resistance vemurafenib, 48 h MTS, read-out: b-AP15 IC50
Method: as §1

[14] = tested on: SBCL2; assay: MTS conversion assay, melanoma cell proliferation; assay type: cell-based; conditions: Homo sapiens, RGP, NRASQ61K, resistance none, 48 h MTS, read-out: b-AP15 IC50
Method: as §1

[15] = tested on: m229; assay: MTS conversion assay, melanoma cell proliferation; assay type: cell-based; conditions: Homo sapiens, MET, BRAFV600E/PTEN*, resistance none, 48 h MTS, read-out: b-AP15 IC50
Method: as §1

[16] = tested on: 451Lu-R Luc+ cells; assay: Melanoma xenograft in nude mice, tumor bioluminescence; assay type: in vivo; conditions: 10 mgkg-1 i.p. every 3 days, vs vehicle
Method: All mouse experiments were carried out in accordance with the Institutional Animal Care and the local ethics committee. For human melanoma xenografts, 5-week-old female athymic (nu/nu) mice (Harlan) were subcutaneously injected with 1×106 451Lu-R BRAF inhibitor resistant melanoma cells engineered to express a luciferase reporter (451Lu-R Luc+ cells) in 100 μl of PBS. After 3 days, mice were injected every 3 days intraperitoneally with vehicle or 10 mgkg-1 b-AP15 in 90/1/9 mix of Labrafil/Tween 80/DMA. At the indicated time, mice were anesthetized and injected intraperitoneally with 50 mgkg-1 D-luciferin (Perkin Elmer) in PBS. Images were acquired using a Photon Imager (Biospace Lab) system and data analysed with the M3Vision software (Biospace Lab). Tumor growth was monitored and quantified using BLI. The total numbers of photons per second per steradian per square centimeter were recorded. For BLI plots, photon flux was calculated for each mouse by using a rectangular region of interest encompassing the thorax of the mouse in a prone position.

[17] = 24 h, increasing doses 0.1 to 10 μM
[18] = 24 h, increasing doses 0.01 to 10 μM

T1 sequence (P54578 whole entry): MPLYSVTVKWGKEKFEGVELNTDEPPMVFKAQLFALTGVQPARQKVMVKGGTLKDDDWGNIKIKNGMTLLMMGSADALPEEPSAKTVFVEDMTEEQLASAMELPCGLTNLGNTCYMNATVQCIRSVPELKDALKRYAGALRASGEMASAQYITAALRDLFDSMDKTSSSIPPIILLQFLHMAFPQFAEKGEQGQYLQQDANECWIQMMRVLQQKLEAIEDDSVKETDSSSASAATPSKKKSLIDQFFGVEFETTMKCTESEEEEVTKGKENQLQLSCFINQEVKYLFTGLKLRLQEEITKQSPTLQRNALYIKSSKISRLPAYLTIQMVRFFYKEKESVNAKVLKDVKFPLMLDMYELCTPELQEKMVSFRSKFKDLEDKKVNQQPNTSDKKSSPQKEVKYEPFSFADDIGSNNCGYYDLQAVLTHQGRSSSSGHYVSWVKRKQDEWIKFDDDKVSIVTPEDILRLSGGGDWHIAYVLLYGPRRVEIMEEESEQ

For `Cc1cc(C(=O)CN2CCCC2)c(C)n1-c1ccc(F)cc1` [b-AP15], the viability [1] was 52%, the ROS production [2] was “triggered a rapid burst of ROS” and the “ER stress response (CHOP, BIP/GRP78, GADD34, ATF4, spliced XBP1)” value [3] was “triggered a potent ER stress response”. For the same molecule, the “USP14 activity in 12051u, 501Mel, SKMe128 and 4511u cells” value ([4]; 2 μM) was “efficiently blocked the activity of USP14”, the “USP14 activity (USP14-Ub-HA) in A375 cells” value ([4]; A375 melanoma cells) was “efficiently blocked the activity of USP14 in a dose-dependent manner” and the “cell proliferation of BRAFi-resistant 4511uR cells (MTS)” value [5, 17] was “potently decreased cell proliferation”. For the same molecule, the IC50 ([5]; Homo sapiens, 451IuR, MET, BRAFV600E/p53*/?, resistance dabrafenib, 48 h MTS, read-out: b-AP15 IC50) was 1300 nM, the “cell proliferation of 1205Lu cells (MTS)” value [6, 18] was “impaired cell proliferation in a dose-dependent manner” and the IC50 ([6]; Homo sapiens, 1205Iu, MET, BRAFV600E/PTEN*, resistance none, 48 h MTS, read-out: b-AP15 IC50) was 400 nM. The “cell proliferation of BRAFi-resistant m229R cells (MTS)” value [7, 17] was “potently decreased cell proliferation”, the IC50 ([7]; Homo sapiens, m229R, MET, BRAFV600E/PTEN*/RTK*, resistance vemurafenib, 48 h MTS, read-out: b-AP15 IC50) was 1100 nM and the “cell proliferation of 501me1 cells (MTS)” value [8, 18] was “impaired cell proliferation in a dose-dependent manner”. The IC50 ([8]; Homo sapiens, 501Mel, MET, BRAFV600E, resistance none, 48 h MTS, read-out: b-AP15 IC50) was 500 nM, the “cell proliferation of A375 cells (MTS)” value ([9]; 24 h, increasing doses up to 10 μM) was “drastically decreased cell proliferation; also recorded: impaired cell proliferation in a dose-dependent manner” and the IC50 ([9]; Homo sapiens, A-375, A375, MET, BRAFV600E/CDKN2A*, resistance none, 48 h MTS, read-out: b-AP15 IC50) was 600 nM. The “time to rounding of melanoma cells” value [10] was at most 12 h, the IC50 [11] was 3400 nM and the melanoma colony formation [12] was “suppressed melanoma colony formation”. For the same molecule, the IC50 [13] was 200 nM, the IC50 [14] was 400 nM and the IC50 [15] was 1200 nM. For the same molecule, the “melanoma burden, bioluminescence analysis of tumor growth” value [16] was “marked decrease in melanoma burden”.
